# Assays:
# Test in all cases: relative viability (nuclei count vs DMSO), 5 days (fraction); higher = more cells survive
# ChaGo-K-1 = test system: ChaGo-K-1
# In short: (§1)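 Five library-drug doses in √10 steps were combined with a fixed anchor-drug dose, or a single drug was given alone, by pin tool to lung cancer cell lines in 1536-well plates the day after seeding. Nuclei were stained and counted after 5 days. Relative viability is the nuclei count in treated wells over that in vehicle wells, taken as the median of duplicate plates.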
# EKVX = test system: EKVX
# In short: as §1
# EMC-BAC-2 = test system: EMC-BAC-2
# In short: as §1
# EPLC-272H = test system: EPLC-272H
# In short: as §1
# HCC-78 = test system: HCC-78
# In short: as §1
# HCC-827 = test system: HCC-827
# In short: as §1
# LCLC-103H = test system: LCLC-103H
# In short: as §1
# LU99A = test system: LU99A
# In short: as §1
# NCI-H1563 = test system: NCI-H1563
# In short: as §1
# NCI-H1666 = test system: NCI-H1666
# In short: as §1
# NCI-H1975 = test system: NCI-H1975
# In short: as §1
# NCI-H2126 = test system: NCI-H2126
# In short: as §1
# NCI-H23 = test system: NCI-H23
# In short: as §1
# NCI-H2405 = test system: NCI-H2405
# In short: as §1
# NCI-H322M = test system: NCI-H322M
# In short: as §1
# PC-14 = test system: PC-14
# In short: as §1
# RERF-LC-KJ = test system: RERF-LC-KJ
# In short: as §1
# SK-LU-1 = test system: SK-LU-1
# In short: as §1
# SW 1573 = test system: SW 1573
# In short: as §1
smiles,measurement,setting,value
COc1cc2nccc(Oc3ccc(NC(=O)Nc4cc(C)on4)c(Cl)c3)c2cc1OC [Tivozanib] + CC(C)C[C@H](NC(=O)[C@H](Cc1ccccc1)NC(=O)c1cnccn1)B(O)O [Bortezomib] (partner 0.002 µM),relative viability,ChaGo-K-1; first compound 0.005 µM,0.907
same,relative viability,ChaGo-K-1; first compound 0.01581 µM,1.08
same,relative viability,ChaGo-K-1; first compound 0.05 µM,1
same,relative viability,ChaGo-K-1; first compound 0.1581 µM,0.969
same,relative viability,ChaGo-K-1; first compound 0.5 µM,0.935
same,relative viability,EKVX; first compound 0.005 µM,0.95
same,relative viability,EKVX; first compound 0.01581 µM,0.924
same,relative viability,EKVX; first compound 0.05 µM,1.11
same,relative viability,EKVX; first compound 0.1581 µM,0.987
same,relative viability,EKVX; first compound 0.5 µM,1.02
same,relative viability,EMC-BAC-2; first compound 0.005 µM,1.05
same,relative viability,EMC-BAC-2; first compound 0.01581 µM,1.07
same,relative viability,EMC-BAC-2; first compound 0.05 µM,1.1
same,relative viability,EMC-BAC-2; first compound 0.1581 µM,0.769
same,relative viability,EMC-BAC-2; first compound 0.5 µM,1.08
same,relative viability,EPLC-272H; first compound 0.005 µM,0.967
same,relative viability,EPLC-272H; first compound 0.01581 µM,0.856
same,relative viability,EPLC-272H; first compound 0.05 µM,0.949
same,relative viability,EPLC-272H; first compound 0.1581 µM,0.727
same,relative viability,EPLC-272H; first compound 0.5 µM,0.676
same,relative viability,HCC-78; first compound 0.005 µM,0.383
same,relative viability,HCC-78; first compound 0.01581 µM,0.496
same,relative viability,HCC-78; first compound 0.05 µM,0.57
same,relative viability,HCC-78; first compound 0.1581 µM,0.549
same,relative viability,HCC-78; first compound 0.5 µM,0.452
same,relative viability,HCC-827; first compound 0.005 µM,0.981
same,relative viability,HCC-827; first compound 0.01581 µM,1.01
same,relative viability,HCC-827; first compound 0.05 µM,1.13
same,relative viability,HCC-827; first compound 0.1581 µM,1.08
same,relative viability,HCC-827; first compound 0.5 µM,1.03
same,relative viability,LCLC-103H; first compound 0.005 µM,0.964
same,relative viability,LCLC-103H; first compound 0.01581 µM,1.01
same,relative viability,LCLC-103H; first compound 0.05 µM,1.21
same,relative viability,LCLC-103H; first compound 0.1581 µM,1.04
same,relative viability,LCLC-103H; first compound 0.5 µM,0.967
same,relative viability,LU99A; first compound 0.005 µM,1.15
same,relative viability,LU99A; first compound 0.01581 µM,1.07
same,relative viability,LU99A; first compound 0.05 µM,1.29
same,relative viability,LU99A; first compound 0.5 µM,1.06
same,relative viability,NCI-H1563; first compound 0.005 µM,0.766
same,relative viability,NCI-H1563; first compound 0.01581 µM,0.964
same,relative viability,NCI-H1563; first compound 0.05 µM,0.896
same,relative viability,NCI-H1563; first compound 0.1581 µM,0.776
same,relative viability,NCI-H1563; first compound 0.5 µM,0.829
same,relative viability,NCI-H1666; first compound 0.005 µM,0.746
same,relative viability,NCI-H1666; first compound 0.01581 µM,0.792
same,relative viability,NCI-H1666; first compound 0.05 µM,0.835
same,relative viability,NCI-H1666; first compound 0.1581 µM,0.74
same,relative viability,NCI-H1666; first compound 0.5 µM,0.875
same,relative viability,NCI-H1975; first compound 0.005 µM,0.376
same,relative viability,NCI-H1975; first compound 0.01581 µM,0.418
same,relative viability,NCI-H1975; first compound 0.05 µM,0.361
same,relative viability,NCI-H1975; first compound 0.1581 µM,0.363
same,relative viability,NCI-H1975; first compound 0.5 µM,0.257
same,relative viability,NCI-H2126; first compound 0.005 µM,1.1
same,relative viability,NCI-H2126; first compound 0.01581 µM,1.07
same,relative viability,NCI-H2126; first compound 0.05 µM,1.14
same,relative viability,NCI-H2126; first compound 0.1581 µM,0.811
same,relative viability,NCI-H2126; first compound 0.5 µM,1.11
same,relative viability,NCI-H23; first compound 0.005 µM,0.946
same,relative viability,NCI-H23; first compound 0.01581 µM,0.975
same,relative viability,NCI-H23; first compound 0.05 µM,1.1
same,relative viability,NCI-H23; first compound 0.1581 µM,0.785
same,relative viability,NCI-H23; first compound 0.5 µM,0.839
same,relative viability,NCI-H2405; first compound 0.005 µM,0.87
same,relative viability,NCI-H2405; first compound 0.01581 µM,1.01
same,relative viability,NCI-H2405; first compound 0.05 µM,1.05
same,relative viability,NCI-H2405; first compound 0.1581 µM,1.02
same,relative viability,NCI-H2405; first compound 0.5 µM,0.886
same,relative viability,NCI-H322M; first compound 0.005 µM,1.24
same,relative viability,NCI-H322M; first compound 0.01581 µM,1.21
same,relative viability,NCI-H322M; first compound 0.05 µM,1.18
same,relative viability,NCI-H322M; first compound 0.1581 µM,1.05
same,relative viability,NCI-H322M; first compound 0.5 µM,1.28
same,relative viability,PC-14; first compound 0.005 µM,0.821
same,relative viability,PC-14; first compound 0.01581 µM,0.847
same,relative viability,PC-14; first compound 0.05 µM,0.99
same,relative viability,PC-14; first compound 0.1581 µM,0.811
same,relative viability,PC-14; first compound 0.5 µM,0.812
same,relative viability,RERF-LC-KJ; first compound 0.005 µM,1.11
same,relative viability,RERF-LC-KJ; first compound 0.01581 µM,1.06
same,relative viability,RERF-LC-KJ; first compound 0.05 µM,1.11
same,relative viability,RERF-LC-KJ; first compound 0.1581 µM,0.83
same,relative viability,RERF-LC-KJ; first compound 0.5 µM,1.03
same,relative viability,SK-LU-1; first compound 0.005 µM,0.931
same,relative viability,SK-LU-1; first compound 0.01581 µM,1.26
same,relative viability,SK-LU-1; first compound 0.05 µM,1.2
same,relative viability,SK-LU-1; first compound 0.1581 µM,0.784
same,relative viability,SK-LU-1; first compound 0.5 µM,0.907
same,relative viability,SW 1573; first compound 0.005 µM,1.02
same,relative viability,SW 1573; first compound 0.01581 µM,1.01
same,relative viability,SW 1573; first compound 0.05 µM,0.936
same,relative viability,SW 1573; first compound 0.1581 µM,0.772
same,relative viability,SW 1573; first compound 0.5 µM,0.831
